Reference: patent US20200323888A1, “INHIBITORS” (VESTLANDETS INNOVASJONSSELSKAP AS, priority 2017, published 2020)
Square brackets hold non-standard residues; d marks the D form. Ends that are not written are not given here. Nle = CCCC[C@H](N)C(=O)O; CoA = coenzyme A

Tests used:
Naa10 = biological target: T1, Naa10 (Homo sapiens, UniProt P41227); assay: Nt-acetylation inhibitor assay (DTNB), Naa10; assay type: biochemical; conditions: selectivity, panel of human NATs
T1 sequence (P41227 1-235): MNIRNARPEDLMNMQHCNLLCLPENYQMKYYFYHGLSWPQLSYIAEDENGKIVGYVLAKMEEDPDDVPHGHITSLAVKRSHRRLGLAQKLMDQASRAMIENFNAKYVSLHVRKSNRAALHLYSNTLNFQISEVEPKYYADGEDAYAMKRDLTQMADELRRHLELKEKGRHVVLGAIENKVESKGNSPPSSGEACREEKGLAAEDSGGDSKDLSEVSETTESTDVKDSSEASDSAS
Method: The IC50 values for these compounds were tested as described in Foyn H, et al. (2013) “Design, Synthesis, and Kinetic Characterization of Protein N-Terminal Acetyltransferase Inhibitors”. ACS Chem Biol 8:1121-1127; and Foyn H, et al. (2017) “DTNB-Based quantification of in vitro enzymatic N-terminal acetyltransferase activity”, Methods Mol. Biol. 1574:9-15. Briefly, a colorimetric acetylation assay, 5,5′-dithiobis-(2-nitrobenzoic acid) (DTNB) assay was used to measure the catalytic activity of NATs after incubation with NAT inhibitors. […] Therefore, NTB- was quantified by measuring the absorbance at 412 nm and indirectly measures peptide Nt-acetylation. […] In order to measure CoA production, 2 mM DTNB (dissolved in 100 mM sodium phosphate dibasic pH 6.8 and 10 mM EDTA) was added to the quenched reaction and the absorbance at 412 nm was measured with a spectrophotometer (Epoc). Background absorbance (determined in negative controls) was subtracted from the absorbance determined in each individual reaction. Thiophenolate production was quantified assuming ε=13.7×103 M−1 cm−1. […] A similar Nt-acetylation reaction was performed as previously described and the enzymatic activity was quenched with a final concentration of 1% TFA and analyzed by HPLC (Evjenth R, Van Damme P, Gevaert K, Arnesen T (2013) HPLC-based Quantification of in vitro N-terminal Acetylation. Methods Mol Biol 981:95-102.). […]

Naa80 = biological target: T2, Naa80 (Homo sapiens, UniProt Q93015); assay: Nt-acetylation inhibitor assay for Naa80; assay type: biochemical
T2 construct: The PCR product containing the CDS was inserted into the TOPO TA vector; made in house; host or cells: E. coli BL21 Star (DE3)
T2 sequence (Q93015 1-308 isoform Q93015-2): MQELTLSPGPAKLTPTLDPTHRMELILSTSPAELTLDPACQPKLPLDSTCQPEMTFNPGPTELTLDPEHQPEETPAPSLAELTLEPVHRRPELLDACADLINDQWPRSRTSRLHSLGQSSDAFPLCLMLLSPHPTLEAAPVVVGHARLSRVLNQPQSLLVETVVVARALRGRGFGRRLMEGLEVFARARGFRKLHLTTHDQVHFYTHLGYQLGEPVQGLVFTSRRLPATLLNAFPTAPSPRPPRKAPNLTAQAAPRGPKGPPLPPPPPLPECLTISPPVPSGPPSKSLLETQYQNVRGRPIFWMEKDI
Method: FIG. 10: (A) IC50 values for inhibitors measured in an Nt-acetylation inhibitor assay for Naa80. (B) Ki-values for CoA-Ac-DDDI-NH2 (SEQ ID NO: 6) for different human NATs measured in an Nt-acetylation inhibitor assay. All reactions were performed at least three times and in triplicate; errors bars represent standard deviation of each measurement.
The IC50 values for these compounds were tested as described in Foyn H, et al. (2013) “Design, Synthesis, and Kinetic Characterization of Protein N-Terminal Acetyltransferase Inhibitors”. ACS Chem Biol 8:1121-1127; and Foyn H, et al. (2017) “DTNB-Based quantification of in vitro enzymatic N-terminal acetyltransferase activity”, Methods Mol. Biol. 1574:9-15. Briefly, a colorimetric acetylation assay, 5,5′-dithiobis-(2-nitrobenzoic acid) (DTNB) assay was used to measure the catalytic activity of NATs after incubation with NAT inhibitors. In the DTNB assay, thiols present in the enzymatic product, CoA, cleaves DTNB and produces 2-nitro-5-thiobenzoate (NTB-), which absorbs light with a wavelength of 412 nm. NTB- forms in a 1:1 molar ratio to the thiol groups present in the sample. Therefore, NTB- was quantified by measuring the absorbance at 412 nm and indirectly measures peptide Nt-acetylation. […] After 30 min-60 min incubation at 37° C., the enzyme activity was quenched with quenching buffer (3.2 M guanidinium-HCl, 100 mM sodium phosphate dibasic pH 6.8). Triplicates were run for all positive samples, while negative controls were duplicated. As a negative control, reactions without enzyme were incubated at 37° C. before the reaction was quenched and added enzyme. In order to measure CoA production, 2 mM DTNB (dissolved in 100 mM sodium phosphate dibasic pH 6.8 and 10 mM EDTA) was added to the quenched reaction and the absorbance at 412 nm was measured with a spectrophotometer (Epoc). Background absorbance (determined in negative controls) was subtracted from the absorbance determined in each individual reaction. Thiophenolate production was quantified assuming ε=13.7×103 M−1 cm−1. For NatA and NatB enzyme complex inhibition, immunoprecipitation was performed using Naa15 ab (custom made, Arnesen T, Anderson D, Baldersheim C, Lanotte M, Varhaug J E, Lillehaug J R. (2005) Identification and characterization of the human ARD1-NATH protein acetyltransferase complex. Biochemical J 386(Pt 3):433-43.) or Naa20 ab (Nat5, abnova) respectively and protein A/G magnetic agarose beads (Millipore). A similar Nt-acetylation reaction was performed as previously described and the enzymatic activity was quenched with a final concentration of 1% TFA and analyzed by HPLC (Evjenth R, Van Damme P, Gevaert K, Arnesen T (2013) HPLC-based Quantification of in vitro N-terminal Acetylation. Methods Mol Biol 981:95-102.).
We then pursued Naa80 bisubstrate analogue inhibitors based on the results of the substrate screening and the sequences of the cellular substrates processed β- and γ-actin. We synthesized bisubstrate conjugates of Coenzyme A coupled to the tetrapeptides MDEL-NH2 (SEQ ID NO: 8), DDDI-NH2 (SEQ ID NO: 6), EEEI-NH2 (SEQ
ID NO: 7), and MLGT-NH2 (SEQ ID NO: 52) via an acetamide (Ac) linker.
The following additional Naa80 bisubstrate analogue inhibitors were produced and tested as described above: […]

zebrafish embryos = assay: Phenotype after injection into zebrafish embryos; assay type: in vivo; conditions: injected into zebrafish embryos; compared with reference inhibitor
Source text: A norleucine (Nle) residue was therefore tried in place of methionine in order to try to circumvent the synthesis problem.

NatA = biological target: T3, NatA (Homo sapiens, UniProt P41227); assay: Nt-acetylation inhibitor assay, immunoprecipitated NatA complex, HPLC quantification; assay type: biochemical; conditions: inhibitors tested against NatA; all compounds with C-terminal amide
T3 construct: endogenous in cells
T3 sequence (P41227 1-235): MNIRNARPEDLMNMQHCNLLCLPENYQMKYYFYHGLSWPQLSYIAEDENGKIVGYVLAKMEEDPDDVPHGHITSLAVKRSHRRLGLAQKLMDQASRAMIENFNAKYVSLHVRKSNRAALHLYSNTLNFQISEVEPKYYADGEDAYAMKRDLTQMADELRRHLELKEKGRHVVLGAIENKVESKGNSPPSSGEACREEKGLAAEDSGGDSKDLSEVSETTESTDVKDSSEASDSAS
T3 sequence (Q9BXJ9 1-866 partner): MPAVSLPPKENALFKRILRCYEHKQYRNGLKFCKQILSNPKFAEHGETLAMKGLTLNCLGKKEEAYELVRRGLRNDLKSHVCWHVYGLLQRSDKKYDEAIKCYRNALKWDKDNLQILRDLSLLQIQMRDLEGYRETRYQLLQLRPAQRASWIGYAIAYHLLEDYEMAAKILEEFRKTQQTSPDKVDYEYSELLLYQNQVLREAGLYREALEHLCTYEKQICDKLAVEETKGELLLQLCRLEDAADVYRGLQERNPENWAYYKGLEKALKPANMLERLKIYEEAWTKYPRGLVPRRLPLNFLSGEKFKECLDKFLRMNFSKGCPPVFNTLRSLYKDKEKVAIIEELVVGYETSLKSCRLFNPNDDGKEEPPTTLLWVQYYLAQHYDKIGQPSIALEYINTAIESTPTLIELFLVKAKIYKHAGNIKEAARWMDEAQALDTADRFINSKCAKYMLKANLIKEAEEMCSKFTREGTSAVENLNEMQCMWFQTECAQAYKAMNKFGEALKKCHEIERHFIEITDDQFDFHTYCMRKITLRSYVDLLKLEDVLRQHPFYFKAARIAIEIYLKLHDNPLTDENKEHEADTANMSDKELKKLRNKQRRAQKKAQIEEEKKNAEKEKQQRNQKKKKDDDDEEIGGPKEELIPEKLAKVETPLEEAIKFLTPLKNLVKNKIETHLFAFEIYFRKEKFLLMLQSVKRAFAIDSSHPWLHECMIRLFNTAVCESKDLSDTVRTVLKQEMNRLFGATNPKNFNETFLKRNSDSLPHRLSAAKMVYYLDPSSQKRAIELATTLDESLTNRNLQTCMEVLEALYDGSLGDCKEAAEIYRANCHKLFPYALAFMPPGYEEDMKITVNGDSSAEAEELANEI
Method: The IC50 values for these compounds were tested as described in Foyn H, et al. (2013) “Design, Synthesis, and Kinetic Characterization of Protein N-Terminal Acetyltransferase Inhibitors”. ACS Chem Biol 8:1121-1127; and Foyn H, et al. (2017) “DTNB-Based quantification of in vitro enzymatic N-terminal acetyltransferase activity”, Methods Mol. Biol. 1574:9-15. Briefly, a colorimetric acetylation assay, 5,5′-dithiobis-(2-nitrobenzoic acid) (DTNB) assay was used to measure the catalytic activity of NATs after incubation with NAT inhibitors. In the DTNB assay, thiols present in the enzymatic product, CoA, cleaves DTNB and produces 2-nitro-5-thiobenzoate (NTB-), which absorbs light with a wavelength of 412 nm. NTB- forms in a 1:1 molar ratio to the thiol groups present in the sample. Therefore, NTB- was quantified by measuring the absorbance at 412 nm and indirectly measures peptide Nt-acetylation. Recombinant purified NAT enzyme was mixed with different substrate peptides (300 uM, custom-made) and Ac-CoA (300 uM) in acetylation buffer (50 mM Tris/HEPES pH 8.5-7.4, 100 mM NaCl, 10% glycerol and 0.2 mM EDTA) and with inhibitor concentration (0-500 uM). After 30 min-60 min incubation at 37° C., the enzyme activity was quenched with quenching buffer (3.2 M guanidinium-HCl, 100 mM sodium phosphate dibasic pH 6.8). Triplicates were run for all positive samples, while negative controls were duplicated. As a negative control, reactions without enzyme were incubated at 37° C. before the reaction was quenched and added enzyme. In order to measure CoA production, 2 mM DTNB (dissolved in 100 mM sodium phosphate dibasic pH 6.8 and 10 mM EDTA) was added to the quenched reaction and the absorbance at 412 nm was measured with a spectrophotometer (Epoc). Background absorbance (determined in negative controls) was subtracted from the absorbance determined in each individual reaction. Thiophenolate production was quantified assuming ε=13.7×103 M−1 cm−1. […] A similar Nt-acetylation reaction was performed as previously described and the enzymatic activity was quenched with a final concentration of 1% TFA and analyzed by HPLC (Evjenth R, Van Damme P, Gevaert K, Arnesen T (2013) HPLC-based Quantification of in vitro N-terminal Acetylation. Methods Mol Biol 981:95-102.).
In order to ensure selectivity towards NatA, the CoA-Ac-SSNIeP (SEQ ID NO: 4) was tested against other NATs. Using the Cheng-Prusoff equation for competitive inhibitors, the dissociation constant, Ki, was calculated from IC50 values and [S]/Km ratios for all the NATs.

MDDD24 = biological target: T4, MDDD24
T4 chain: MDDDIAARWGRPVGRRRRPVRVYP

MDEL24 = biological target: T5, MDEL24
T5 chain: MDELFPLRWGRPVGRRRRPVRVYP

DDDI24 = biological target: T6, DDDI24
T6 chain: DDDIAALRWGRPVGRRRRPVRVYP

## CC[C@H](C)[C@H](NC(=O)[C@H](CC(=O)O)NC(=O)[C@H](CC(=O)O)NC(=O)[C@H](CC(=O)O)NC(=O)CSCCNC(=O)CCNC(=O)C(O)C(C)(C)COP(=O)(O)OP(=O)(O)OCC1OC(n2cnc3c(N)ncnc32)C(O)C1OP(=O)(O)O)C(N)=O (stereo partly drawn) [CoA-Ac-DDDI-NH2]
Naa10
  reduced potency for Naa10 compared to Naa80: 88 fold
Naa80; Naa80
  IC50: 0.38 µM
Naa80; ratio of IC50 values
  more potent Naa80 inhibitor than CoA-Ac-EEEI-NH2: 3 fold
  more potent Naa80 inhibitor than CoA-Ac-MDEL-NH2: 3.3 fold

## CoA-Ac-SSNlePK-folic acid: CoA-Ac-SS(Nle)PK (SEQ ID NO: 23) carrying folic acid as targeting moiety ({CoA-Ac}-SS[Nle]PK; not fully specified (C-terminus); also: folic acid conjugate as targeting moiety, site not given here)
Zebrafish embryos
  phenotype in zebrafish: comparable phenotypes as CoA-Ac-SSNleP-NH2

## CCCC[C@H](NC(=O)[C@H](CO)NC(=O)[C@@H]1CCCN1C(=O)CSCCNC(=O)CCNC(=O)C(O)C(C)(C)COP(=O)(O)OP(=O)(O)OCC1OC(n2cnc3c(N)ncnc32)C(O)C1OP(=O)(O)O)C(=O)N1CCC[C@H]1C(N)=O (stereo partly drawn) [CoA-Ac-PS(Nle)P]
NatA
  IC50: > 1000 µM

B1: MBP-HishNAA80 fusion protein (MBP-Naa80) (protein)
chain: MQELTLSPGPAKLTPTLDPTHRMELILSTSPAELTLDPACQPKLPLDSTCQPEMTFNPGPTELTLDPEHQPEETPAPSLAELTLEPVHRRPELLDACADLINDQWPRSRTSRLHSLGQSSDAFPLCLMLLSPHPTLEAAPVVVGHARLSRVLNQPQSLLVETVVVARALRGRGFGRRLMEGLEVFARARGFRKLHLTTHDQVHFYTHLGYQLGEPVQGLVFTSRRLPATLLNAFPTAPSPRPPRKAPNLTAQAAPRGPKGPPLPPPPPLPECLTISPPVPSGPPSKSLLETQYQNVRGRPIFWMEKDI
MDDD24
  substrate ranking by product formation: the second best substrate, MDDD24
MDEL24
  product formation, fold higher compared to the second best substrate MDDD24: a 5-fold higher product formation compared to the second best substrate, MDDD24
DDDI24
  substrate ranking by product formation: its cellular substrate, processed β-actin, DDDI24 (SEQ ID NO: 41) ranked third
